Read-outs that look alike come from different tables or passages of the source.

Experimental findings from patent publication US20260325533A1, “CDK INHIBITOR COMPOUNDS” (ALEKSIA THERAPEUTICS, INC., priority 2023, published 2026) are described below.

Type in all cases: biochemical
For assay [1], the target named is CDK2/CCNE1 (Homo sapiens, UniProt P24941). Kind of assay: CDK2 homogeneous time-resolved fluorescence (HTRF) kinase assay. The conditions noted are these: CDK2/CCNE. The essentials:
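3 nM CDK2/CCNE1 was preincubated with compound for 20 min at 23 °C in HEPES buffer (pH not stated), then reacted 60 min with 1 mM ATP and 50 nM ULight-4E-BP1 (Thr37/46) peptide. After EDTA stop, Eu-anti-phospho-4E-BP1 antibody (2 nM) was added for 60 min and TR-FRET read at 665 nm.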
Background: Time-resolved FRET reads energy transfer from a long-lived donor to a nearby acceptor.

In assay [2] the target is CDK1/CCNB1 (Homo sapiens, UniProt P06493). Briefly: CDK1 homogeneous time-resolved fluorescence (HTRF) kinase assay. To be noted: CDK1/CCNB. The essentials: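 Compounds, titrated 11 points in half-log steps typically from 10 μM, were incubated with enzyme for 20 min before ATP (1 mM) and ULight-labelled eIF4E-binding protein 1 peptide (50 nM) started a 60-min reaction at 23 °C. Phosphopeptide was detected by europium-antibody TR-FRET and IC50 values were derived.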
Sequence of CDK1/CCNB1 (P06493 whole entry): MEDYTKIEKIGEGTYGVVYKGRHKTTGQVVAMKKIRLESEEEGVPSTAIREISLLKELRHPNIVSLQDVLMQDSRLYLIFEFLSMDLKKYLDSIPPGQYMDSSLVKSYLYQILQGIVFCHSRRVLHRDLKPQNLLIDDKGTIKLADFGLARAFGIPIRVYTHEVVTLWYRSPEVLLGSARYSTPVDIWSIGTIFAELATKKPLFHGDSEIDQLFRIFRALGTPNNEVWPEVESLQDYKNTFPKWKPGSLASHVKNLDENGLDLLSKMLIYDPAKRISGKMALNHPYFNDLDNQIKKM
Sequence of CDK1/CCNB1 (P14635 whole entry partner): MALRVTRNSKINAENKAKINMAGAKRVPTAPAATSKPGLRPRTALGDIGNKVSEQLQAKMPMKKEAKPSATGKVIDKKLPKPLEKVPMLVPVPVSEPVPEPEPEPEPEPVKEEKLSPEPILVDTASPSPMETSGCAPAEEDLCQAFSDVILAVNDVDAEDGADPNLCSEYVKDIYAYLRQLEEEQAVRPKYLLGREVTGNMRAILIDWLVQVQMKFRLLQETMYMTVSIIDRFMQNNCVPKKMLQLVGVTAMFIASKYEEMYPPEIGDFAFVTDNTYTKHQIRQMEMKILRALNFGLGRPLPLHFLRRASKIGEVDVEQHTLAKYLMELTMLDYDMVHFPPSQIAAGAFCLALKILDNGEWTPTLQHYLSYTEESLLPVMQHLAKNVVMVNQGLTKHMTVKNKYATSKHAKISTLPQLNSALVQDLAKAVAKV

Assay [3] has as its target CDK4/CCND3 (Homo sapiens, UniProt P11802). Kind of assay: CDK4 homogeneous time-resolved fluorescence (HTRF) kinase assay. The conditions noted are these: CDK4/CCND. The essentials: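 CDK4/CCND3 at 1.5 nM was preincubated with compound for 20 min at 23 °C, then reacted for 60 min with 1 mM ATP and 50 nM ULight-4E-BP1 (Thr37/46) peptide. The reaction was stopped with EDTA, and phosphorylation was read by HTRF with a Eu-anti-phospho antibody. IC50 values came from 11-point half-log titrations, typically from 10 μM.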

In assay [4] the target is CDK6/CCND1 (Homo sapiens, UniProt Q00534). Briefly: CDK6 homogeneous time-resolved fluorescence (HTRF) kinase assay. The conditions noted are these: CDK6/CCND. The essentials:
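Enzyme pre-incubated 20 min at 23 °C with compound, then reacted 60 min at 23 °C with 1 mM ATP and 50 nM ULight-4E-BP1 (Thr37/46) peptide; 1 nM enzyme, 1% DMSO. EDTA-stopped, Eu-anti-phospho antibody TR-FRET read (665 nm or 665/615 ratio); 11-point half-log titration from 10 μM gave IC50.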

Where [5] appears, read: x = IC50 <25 nM, read-out: CDK2/CCNE IC50 (<25 nM).
Setting [6] is: x = IC50 25-250 nM, read-out: CDK1/CCNB IC50 (25-250 nM).
The mark [7] stands for this setting: x = IC50 >250 nM, read-out: CDK4/CCND IC50 (>250 nM column).
[8] abbreviates: x = IC50 >250 nM, read-out: CDK6/CCND IC50 (>250 nM column).
[9] abbreviates: x = IC50 >250 nM, read-out: CDK1/CCNB IC50 (>250 nM column).
Where [10] appears, read: x = IC50 25-250 nM, read-out: CDK2/CCNE IC50 (25-250 nM).
The mark [11] stands for this setting: x = IC50 25-250 nM, read-out: CDK4/CCND IC50 (25-250 nM).
Setting [12] is: x = IC50 25-250 nM, read-out: CDK6/CCND IC50 (25-250 nM).
Setting [13] is: x = IC50 >250 nM, read-out: CDK2/CCNE IC50 (>250 nM column).

Sequence of CDK4/CCND3 (P11802 whole entry): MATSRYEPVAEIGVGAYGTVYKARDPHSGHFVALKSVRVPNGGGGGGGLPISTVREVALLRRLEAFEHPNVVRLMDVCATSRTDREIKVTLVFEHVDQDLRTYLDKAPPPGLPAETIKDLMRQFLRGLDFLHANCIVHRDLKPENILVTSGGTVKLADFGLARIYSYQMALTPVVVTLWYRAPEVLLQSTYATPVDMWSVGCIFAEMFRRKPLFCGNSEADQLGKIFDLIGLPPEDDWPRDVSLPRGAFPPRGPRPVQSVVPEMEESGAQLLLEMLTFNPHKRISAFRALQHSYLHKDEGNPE
Sequence of CDK4/CCND3 (P30281 whole entry partner): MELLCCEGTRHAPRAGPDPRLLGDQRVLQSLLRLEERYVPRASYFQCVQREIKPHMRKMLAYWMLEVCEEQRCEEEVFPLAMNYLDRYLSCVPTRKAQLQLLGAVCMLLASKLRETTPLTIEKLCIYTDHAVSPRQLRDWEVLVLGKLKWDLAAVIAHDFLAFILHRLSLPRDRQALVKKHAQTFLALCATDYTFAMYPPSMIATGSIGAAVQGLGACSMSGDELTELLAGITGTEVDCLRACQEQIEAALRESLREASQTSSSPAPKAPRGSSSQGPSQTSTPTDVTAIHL
Sequence of CDK6/CCND1 (Q00534 whole entry): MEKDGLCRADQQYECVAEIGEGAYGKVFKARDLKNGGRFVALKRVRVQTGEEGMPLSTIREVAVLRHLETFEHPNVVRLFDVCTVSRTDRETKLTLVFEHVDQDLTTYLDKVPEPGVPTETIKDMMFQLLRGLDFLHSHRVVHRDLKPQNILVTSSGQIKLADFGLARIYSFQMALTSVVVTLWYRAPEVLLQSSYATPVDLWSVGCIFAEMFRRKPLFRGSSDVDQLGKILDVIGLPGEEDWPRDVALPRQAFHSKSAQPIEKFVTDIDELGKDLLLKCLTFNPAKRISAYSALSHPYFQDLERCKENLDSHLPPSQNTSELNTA
Sequence of CDK6/CCND1 (P24385 whole entry partner): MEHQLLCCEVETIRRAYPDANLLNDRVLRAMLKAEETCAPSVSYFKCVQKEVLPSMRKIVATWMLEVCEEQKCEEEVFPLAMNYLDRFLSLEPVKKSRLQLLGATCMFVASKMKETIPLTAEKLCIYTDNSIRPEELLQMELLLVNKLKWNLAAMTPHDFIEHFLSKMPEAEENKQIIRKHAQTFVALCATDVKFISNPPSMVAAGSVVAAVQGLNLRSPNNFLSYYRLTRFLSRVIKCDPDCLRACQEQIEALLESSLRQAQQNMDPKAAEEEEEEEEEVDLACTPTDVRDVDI

In the case of `Cc1cc(C)nc(NS(=O)(=O)c2ccc(Nc3cc4c(C#Cc5cccnc5N)nccc4cn3)cc2)n1` [Example 471, 4-((5-((2-aminopyridin-3-yl)ethynyl)-2,6-naphthyridin-3-yl)amino)-N-(4,6-dimethylpyrimidin-2-yl)benzenesulfonamide], the IC50 in assay [1] (setting [5]) is less than 25 nM; in assay [2] (setting [6]) it was 25 to 250 nM; in assay [3] (setting [7]) it was more than 250 nM; in assay [4] (setting [8]), more than 250 nM.

For `Cc1c(C#Cc2nccc3cnc(Nc4ccc(S(C)(=O)=O)cc4)cc23)ccc2oc(=O)[nH]c12` [Example 472, 4-Methyl-5-((7-((4-(methylsulfonyl)phenyl)amino)-2,6-naphthyridin-1-yl)ethynyl)benzo[d]oxazol-2(3H)-one], the IC50 in assay [1] (setting [5]) is less than 25 nM; in assay [2] (setting [9]) it was more than 250 nM; in assay [3] (setting [7]), more than 250 nM; in assay [4] (setting [8]), more than 250 nM.

As for `Nc1ncccc1C#Cc1nccc2cnc(Nc3ccc(S(N)(=O)=O)cc3)cc12` [Example 475, 4-((5-((2-aminopyridin-3-yl)ethynyl)-2,6-naphthyridin-3-yl)amino)benzenesulfonamide], the IC50 is less than 25 nM in assay [1] (setting [5]), 25 to 250 nM in assay [2] (setting [6]), more than 250 nM in assay [3] (setting [7]) and more than 250 nM in assay [4] (setting [8]).

In the case of `CS(=O)(=O)c1ccc(Nc2cc3c(C#Cc4ccc5[nH]c(=O)oc5c4)nccc3cn2)cc1` [Example 476, 6-((7-((4-(methylsulfonyl)phenyl)amino)-2,6-naphthyridin-1-yl)ethynyl)benzo[d]oxazol-2(3H)-one], the IC50 is 25 to 250 nM in assay [1] (setting [10]), more than 250 nM in assay [2] (setting [9]), more than 250 nM in assay [3] (setting [7]) and more than 250 nM in assay [4] (setting [8]).

On to `Cc1c(-c2nccc3cnc(Nc4ccc(S(C)(=N)=O)cc4)cc23)ccc2c1cnn2CC(O)(C(F)(F)F)C(F)(F)F` (stereo not shown) [Example 482, Imino(methyl)(4-((5-(4-methyl-1-(3,3,3-trifluoro-2-hydroxy-2-(trifluoromethyl)propyl)-1H-indazol-5-yl)-2,6-naphthyridin-3-yl)amino)phenyl)-λ^6-sulfanone], for which the IC50 in assay [1] (setting [5]) is less than 25 nM; in assay [2] (setting [9]), more than 250 nM; in assay [3] (setting [11]), 25 to 250 nM; in assay [4] (setting [12]) it was 25 to 250 nM.

In the case of `CS(=O)(=O)c1ccc(Nc2cc3c(C#Cc4ccc(NC(=O)C5CC5)cc4)nccc3cn2)cc1` [Example 487, N-(4-((7-((4-(methylsulfonyl)phenyl)amino)-2,6-naphthyridin-1-yl)ethynyl)phenyl)cyclopropanecarboxamide], the IC50 in assay [1] (setting [10]) is 25 to 250 nM; in assay [2] (setting [9]), more than 250 nM; in assay [3] (setting [7]), more than 250 nM; in assay [4] (setting [8]), more than 250 nM.

Take `C[C@@H](C#Cc1nccc2cnc(Nc3ccc(S(C)(=O)=O)cc3)cc12)CO` [Example 488, (S)-2-methyl-4-(7-((4-(methylsulfonyl)phenyl)amino)-2,6-naphthyridin-1-yl)but-3-yn-1-ol]: the IC50 in assay [1] (setting [5]) was less than 25 nM; in assay [2] (setting [9]), more than 250 nM; in assay [3] (setting [11]) it was 25 to 250 nM; in assay [4] (setting [12]), 25 to 250 nM.

For the molecule `CS(=N)(=O)c1ccc(Nc2cc3c(C#Cc4cccnc4N)nccc3cn2)cc1` (stereo not shown) [Example 490, (4-((5-((2-aminopyridin-3-yl)ethynyl)-2,6-naphthyridin-3-yl)amino)phenyl)(imino)(methyl)-λ^6-sulfanone], the IC50 in assay [1] (setting [10]) was 25 to 250 nM; in assay [2] (setting [9]), more than 250 nM; in assay [3] (setting [7]) it was more than 250 nM; in assay [4] (setting [8]), more than 250 nM.

For the molecule `COC(=O)CCc1ccc(C#Cc2nccc3cnc(Nc4ccc(S(C)(=O)=O)cc4)cc23)cc1` [Example 493, methyl 3-(4-((7-((4-(methylsulfonyl)phenyl)amino)-2,6-naphthyridin-1-yl)ethynyl)phenyl)propanoate], the IC50 in assay [1] (setting [10]) was 25 to 250 nM; in assay [2] (setting [9]), more than 250 nM; in assay [3] (setting [7]) it was more than 250 nM; in assay [4] (setting [8]) it was more than 250 nM.

Consider `CS(=O)(=O)c1ccc(Nc2cc3c(C#Cc4ccc(CCC(=O)O)cc4)nccc3cn2)cc1` [Example 494, 3-(4-((7-((4-(methylsulfonyl)phenyl)amino)-2,6-naphthyridin-1-yl)ethynyl)phenyl)propanoic acid], for which the IC50 in assay [1] (setting [5]) is less than 25 nM; in assay [2] (setting [9]), more than 250 nM; in assay [3] (setting [7]), more than 250 nM; in assay [4] (setting [8]) it was more than 250 nM.

`CS(=O)(=O)c1ccc(Nc2cc3c(C#Cc4n[nH]c(=O)c5ccccc45)nccc3cn2)cc1` [Example 495, 4-((7-((4-(methylsulfonyl)phenyl)amino)-2,6-naphthyridin-1-yl)ethynyl) phthalazin-1(2H)-one]: the IC50 is 25 to 250 nM in assay [1] (setting [10]), more than 250 nM in assay [2] (setting [9]), more than 250 nM in assay [3] (setting [7]) and more than 250 nM in assay [4] (setting [8]).

With `CS(=O)(=O)c1ccc(Nc2cc3c(C#Cc4n[nH]c5cnccc45)nccc3cn2)cc1` [Example 496, 5-((1H-pyrazolo[3,4-c]pyridin-3-yl)ethynyl)-N-(4-(methylsulfonyl)phenyl)-2,6-naphthyridin-3-amine], the IC50 in assay [1] (setting [5]) was less than 25 nM; in assay [2] (setting [9]), more than 250 nM; in assay [3] (setting [7]), more than 250 nM; in assay [4] (setting [8]) it was more than 250 nM.

For the molecule `CS(=O)(=O)c1ccc(Nc2cc3c(C#Cc4c(N)ncnc4Cl)nccc3cn2)cc1` [Example 510, 5-((4-amino-6-chloropyrimidin-5-yl)ethynyl)-N-(4-(methylsulfonyl)phenyl)-2,6-naphthyridin-3-amine], the IC50 was less than 25 nM in assay [1] (setting [5]), more than 250 nM in assay [2] (setting [9]), more than 250 nM in assay [3] (setting [7]) and more than 250 nM in assay [4] (setting [8]).

For the molecule `COc1cnc(C#Cc2nccc3cnc(Nc4ccc(S(C)(=O)=O)cc4)cc23)nc1` [Example 513, 5-((5-methoxypyrimidin-2-yl)ethynyl)-N-(4-(methylsulfonyl)phenyl)-2,6-naphthyridin-3-amine], the IC50 in assay [1] (setting [13]), in assay [2] (setting [9]), in assay [3] (setting [7]) and in assay [4] (setting [8]) was more than 250 nM throughout.

In the case of `CS(=O)(=O)c1ccc(Nc2cc3c(C#Cc4ccc5c(c4)OCC(=O)N5)nccc3cn2)cc1` [Example 519, 7-((7-((4-(methylsulfonyl)phenyl)amino)-2,6-naphthyridin-1-yl)ethynyl)-2H-benzo[b][1,4]oxazin-3(4H)-one], the IC50 in assay [1] (setting [10]) was 25 to 250 nM; in assay [2] (setting [9]), more than 250 nM; in assay [3] (setting [7]) it was more than 250 nM; in assay [4] (setting [8]), more than 250 nM.

For the molecule `CS(=O)(=O)c1ccc(Nc2cc3c(C#Cc4ccc(C(F)F)nc4)nccc3cn2)cc1` [Example 524, 5-((6-(difluoromethyl)pyridin-3-yl)ethynyl)-N-(4-(methylsulfonyl)phenyl)-2,6-naphthyridin-3-amine], the IC50 in assay [1] (setting [13]), in assay [2] (setting [9]), in assay [3] (setting [7]) and in assay [4] (setting [8]) was more than 250 nM each time.

As to `CS(=O)(=O)c1ccc(Nc2cc3c(C#Cc4ccc(Cl)cn4)nccc3cn2)cc1` [Example 544, 5-((5-chloropyridin-2-yl)ethynyl)-N-(4-(methylsulfonyl)phenyl)-2,6-naphthyridin-3-amine], the IC50 in assay [1] (setting [13]), in assay [2] (setting [9]), in assay [3] (setting [7]) and in assay [4] (setting [8]) was more than 250 nM throughout.

For the molecule `CC(C)(O)c1cc2ccc(C#Cc3nccc4cnc(Nc5ccc(S(C)(=O)=O)cc5)cc34)cc2[nH]1` [Example 590, 2-(6-((7-((4-(methylsulfonyl)phenyl)amino)-2,6-naphthyridin-1-yl)ethynyl)-1H-indol-2-yl)propan-2-ol], the IC50 in assay [1] (setting [10]) is 25 to 250 nM; in assay [2] (setting [9]), more than 250 nM; in assay [3] (setting [7]), more than 250 nM; in assay [4] (setting [8]) it was more than 250 nM.

Regarding `Cc1c(-c2nccc3cnc(Nc4ccc(S(C)(=O)=O)cc4)cc23)ncc2[nH]ncc12` [Example 591, 5-(4-methyl-1H-pyrazolo[3,4-c]pyridin-5-yl)-N-(4-(methylsulfonyl)phenyl)-2,6-naphthyridin-3-amine], the IC50 in assay [1] (setting [10]) is 25 to 250 nM; in assay [2] (setting [9]), more than 250 nM; in assay [3] (setting [7]), more than 250 nM; in assay [4] (setting [8]), more than 250 nM.
